Like-named read-outs stand apart in the source and are kept apart here.
What was measured:
human GPER = test system: human GPER; parameters: method as in Thomas and Dong 2006; conditions: ref Thomas and Dong 2006; cited from earlier work
GPER [1] = molecular target: T1, GPER (Homo sapiens, UniProt Q99527); assay: cell-based
GPER [2] = molecular target: T1, GPER; assay: SKBR3 cell-based fluorescence competitive binding assay (E2-F probe, flow cytometry)
[3] = test system: GPER-mediated signaling in SKBR3 cells; assay: Calcium mobilization assay in SKBR3 cells; assay type: cell-based, human; conditions: for significant dose-dependent increase in calcium mobilization compared to control: SKBR3 cells; for LOECs, activation of GPER signaling pathways: abstract summary over calcium mobilization and cAMP accumulation in SKBR3 cells
[4] = test system: GPER-mediated signaling in SKBR3 cells; assay: cAMP assay in SKBR3 cells; assay type: cell-based, human; conditions: for significant dose-dependent increase in cAMP production compared to control / LOEC, cAMP production: SKBR3 cells; for LOEC, cAMP production: 30 min treatment
Method: SKBR3 cells ( 2×10^4 cells) were seeded in 96-well microplates which were precoated with a capture antibody for the cAMP-antibody complex (Invitrogen). […].

ERα = test system: ERα; parameters: method as in Li et al. 2013; conditions: ref Li et al. 2013; cited from earlier work
SKBR3 cells [5] = assay: Wound-healing cell migration assay; assay type: cell-based, human; conditions: for LOEC, SKBR3 cell migration, wound-healing assay: 48 h; for LOECs, promotion of SKBR3 cell migration via GPER pathways: abstract summary over Boyden chamber and wound-healing assays
Method: For the wound-healing assays, SKBR3 cells were seeded in 12-well microplates at a density of 2.5×10^5 cells/well, incubated first in phenol red–free RPMI 1640 with 10% FBS for 12 h and then in phenol red–free RPMI 1640 without FBS for another 12 h. The cell layer was wounded with a sterile 200-μL pipet tip and washed 3 times with phenol red–free RPMI 1640. […] The closure of the scratch was photographed using an inverted microscope (ROCTEC) coupled to a camera (Canon). The change in the scratch area was evaluated using Image-Pro Plus 6.0 (Media Cybernetics). The relative cell migration was calculated by comparing the change in the wound area in the treated wells with those in the control wells.

SKBR3 cells [6] = assay: Boyden chamber cell migration assay; assay type: cell-based, human; conditions: for LOEC, SKBR3 cell migration, Boyden chamber assay: 48 h
Method: SKBR3 cell migration was evaluated using Boyden chamber and wound-healing assays as described previously with slight modification ([Cao et al. 2017]). For the Boyden chamber assay, 24-well plates containing cell culture inserts with 8-μm pore size (Corning) were used. The cells ( 8×10^4 cells, 100μL ) were seeded in the upper chamber, and the lower chamber was supplied with 600μL phenol red–free RPMI 1640 with 10% FBS (Invitrogen). After 12 h, the cells were incubated with phenol red–free RPMI 1640 without FBS for another 12 h. […] After incubation for 48 h, the cells on the upper side of the insert membrane were removed with cotton swabs, and the cells on the lower surface of the membrane were fixed with methanol for 10 min and stained with 0.1% crystal violet (Sigma-Aldrich). Then, the cells were counted under an inverted microscope (ROCTEC) coupled to a camera (Canon), and six fields were randomly chosen per chamber. The relative cell migration was determined by comparing the average number of cells in the six fields of the treated chamber to those in the control chamber.

SH-SY5Y cells = test system: SH-SY5Y cells; parameters: method as in Tian et al. 2016; conditions: activity inhibited by GPER antagonist G15; ref Tian et al. 2016; cited from earlier work
rats = conditions: exposure of pregnant rats, 1–10mg/kg, cited from earlier work
zebrafish GPER = test system: zebrafish GPER; parameters: method as in Fitzgerald et al. 2015; conditions: ref Fitzgerald et al. 2015, cited from earlier work; for binding to zebrafish GPER at a single tested concentration: 1μM
[7] = ratio between IC50 of E2 and compounds, E2 = 100%
[8] = E2-treated SKBR3 cells, G15 pretreatment 2 h

T1 sequence (Q99527 whole entry): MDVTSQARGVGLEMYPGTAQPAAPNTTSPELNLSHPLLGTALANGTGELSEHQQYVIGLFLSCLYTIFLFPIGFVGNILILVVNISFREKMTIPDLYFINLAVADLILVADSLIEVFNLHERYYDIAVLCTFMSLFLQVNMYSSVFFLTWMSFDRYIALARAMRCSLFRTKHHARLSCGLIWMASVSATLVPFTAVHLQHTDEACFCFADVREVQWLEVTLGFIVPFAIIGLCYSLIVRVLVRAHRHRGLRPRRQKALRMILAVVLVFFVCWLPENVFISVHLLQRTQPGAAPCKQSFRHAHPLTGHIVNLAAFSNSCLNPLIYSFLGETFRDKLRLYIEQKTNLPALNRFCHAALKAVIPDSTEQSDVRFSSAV

Clc1ccc(C(c2ccc(Cl)cc2)C(Cl)(Cl)Cl)cc1 [2,2-bis(p-chlorophenyl)-1,1,1-trichloroethane]
RBA to human GPER compared to E2 (human GPER): 0.2–1.3%

Clc1ccc(C(c2ccccc2Cl)C(Cl)Cl)cc1 (stereo not drawn) [2-(2-chlorophenyl)-2-(4-chlorophenyl)-1,1-dichloroethane]
RBA to human GPER compared to E2 (human GPER): 0.2–1.3%

Oc1ccccc1Oc1ccc(Br)cc1 [2ʹ-OH-BDE-003, 2'-hydroxy-4-monobromodiphenyl ether]
IC50 (GPER [1]): 20 µM | RBA (relative binding affinity) (GPER [2]; [7]): 1.3%

Oc1c(Br)ccc(Oc2ccc(Br)cc2Br)c1Br [3-OH-BDE-047, 3-hydroxy-2,2',4,4'-tetrabromodiphenyl ether]
significant dose-dependent increase in calcium mobilization compared to control [3]: exceptions | IC50 (GPER [2]): 12 µM | RBA (relative binding affinity) (GPER [2]): 2.2% | significant dose-dependent increase in cAMP production compared to control [4]: exceptions

Oc1c(Br)cc(Br)c(Oc2ccc(Br)cc2Br)c1Br [3-OH-BDE-100, 3-hydroxy-2,2',4,4',6-pentabromodiphenyl ether]
significant dose-dependent increase in calcium mobilization compared to control [3]: exceptions | type of activity on ERα (ERα): antagonists | IC50 (GPER [1]): 3.6 µM | RBA (relative binding affinity) (GPER [2]): 7.2% | significant dose-dependent increase in cAMP production compared to control [4]: exceptions

Oc1cccc(Oc2ccc(Br)cc2Br)c1 [3ʹ-OH-BDE-007, 3'-hydroxy-2,4-dibromodiphenyl ether]
IC50 (GPER [1]): 2.6 µM | RBA (relative binding affinity) (GPER [2]; [7]): 10.0%

Oc1cc(Oc2ccc(Br)cc2Br)ccc1Br [3ʹ-OH-BDE-028, 3'-hydroxy-2,4,4'-tribromodiphenyl ether]
IC50 (GPER [1]): 3 µM | RBA (relative binding affinity) (GPER [2]; [7]): 8.7%

Oc1c(Br)cc(Br)c(Oc2cc(Br)c(Br)cc2Br)c1Br [3ʹ-OH-BDE-154, 3'-hydroxy-2,2',4,4',5,6'-hexabromodiphenyl ether]
LOECs, activation of GPER signaling pathways [3]: 10 to 100 nM | type of activity on ERα (ERα): antagonists | IC50 (GPER [1]): 1.3 µM | LOEC, SKBR3 cell migration, wound-healing assay (SKBR3 cells [5]): 100 nM | LOECs, promotion of SKBR3 cell migration via GPER pathways (SKBR3 cells [5]): 0.1 to 1 µM | LOEC, SKBR3 cell migration, Boyden chamber assay (SKBR3 cells [6]): 100 nM

Oc1c(Br)c(Br)c(Oc2cc(Br)c(Br)cc2Br)c(Br)c1Br [4-OH-BDE-187, 4-hydroxy-2,2',3,4',5,5',6-heptabromodiphenyl ether]
IC50 (GPER [1]): 6.2 µM | RBA (relative binding affinity) (GPER [2]; [7]): 4.2%

Oc1ccc(-c2cc(Cl)ccc2Cl)c(Cl)c1 [4-hydroxy-2,2ʹ,5ʹ-trichloro-biphenyl]
RBA to human GPER compared to E2 (human GPER): 0.2–1.3%

Oc1cc(Br)c(Oc2ccc(Br)cc2Br)cc1Br [4ʹ-OH-BDE-049, 4'-hydroxy-2,2',4,5'-tetrabromodiphenyl ether]
LOECs, activation of GPER signaling pathways [3]: 10 to 100 nM | IC50 (GPER [1]): 2.8 µM | RBA (relative binding affinity) (GPER [2]; [7]): 9.3% | LOEC, SKBR3 cell migration, wound-healing assay (SKBR3 cells [5]): 1000 nM | LOECs, promotion of SKBR3 cell migration via GPER pathways (SKBR3 cells [5]): 0.1 to 1 µM | LOEC, SKBR3 cell migration, Boyden chamber assay (SKBR3 cells [6]; text: same LOECs as for the wound-healing assay): 1000 nM

Oc1c(Br)c(Br)c(Oc2c(Br)cc(Br)c(Br)c2Br)c(Br)c1Br [4ʹ-OH-BDE-201, 4'-hydroxy-2,2',3,3',4,5',6,6'-octabromodiphenyl ether]
IC50 (GPER [1]): 5.3 µM | RBA (relative binding affinity) (GPER [2]; [7]): 4.9%

Oc1cc(Oc2cc(Br)c(Br)cc2Br)c(Br)cc1Br [5ʹ-OH-BDE-099, 5'-hydroxy-2,2',4,4',5-pentabromodiphenyl ether]
LOECs, activation of GPER signaling pathways [3]: 10 to 100 nM | type of activity on ERα (ERα): antagonists | IC50 (GPER [1]): 1.3 µM | LOEC, SKBR3 cell migration, wound-healing assay (SKBR3 cells [5]): 100 nM | LOECs, promotion of SKBR3 cell migration via GPER pathways (SKBR3 cells [5]): 0.1 to 1 µM | LOEC, SKBR3 cell migration, Boyden chamber assay (SKBR3 cells [6]): 100 nM

Oc1cc(Br)c(Br)c(Br)c1Oc1ccc(Br)cc1Br [6-OH-BDE-085, 6-hydroxy-2,2',3,4,4'-pentabromodiphenyl ether]
type of activity on ERα (ERα): antagonists

Oc1c(Br)c(Br)c(Br)c(Br)c1Oc1cc(Br)c(Br)cc1Br [6-OH-BDE-180, 6-hydroxy-2,2',3,4,4',5,5'-heptabromodiphenyl ether]
IC50 (GPER [1]): 4.8 µM | RBA (relative binding affinity) (GPER [2]; [7]): 5.4%

Brc1ccc(Oc2ccc(Br)cc2Br)c(Br)c1 [BDE-047, 2,2',4,4'-tetrabromodiphenyl ether]
effect on migration of SH-SY5Y cells (SH-SY5Y cells): stimulated the migration

Brc1ccc(Oc2cc(Br)c(Br)cc2Br)c(Br)c1 [BDE-099, 2,2',4,4',5-pentabromodiphenyl ether]
estrogen target genes in the uterus of female offspring (rats; ref Ceccatelli et al. 2006): changes in the regulation of estrogen target genes | sex steroid levels in male and female offspring (rats; ref Lilienthal et al. 2006): decreases in sex steroid levels

CC(C)(c1ccc(O)cc1)c1ccc(O)cc1 [BPA, bisphenol A]
RBA to human GPER compared to E2 (human GPER): 2.8% | RBA to zebrafish GPER (zebrafish GPER): 15.8%

C[C@]12CC[C@@H]3c4ccc(O)cc4CC[C@H]3[C@@H]1CC[C@@H]2O [E2, 17β-estradiol, reference compound]
LOEC, SKBR3 cell migration, wound-healing assay (SKBR3 cells [5]): 1 nM | LOEC, cAMP production [4]: 1 nM | LOEC, SKBR3 cell migration, Boyden chamber assay (SKBR3 cells [6]): 1 nM

CC(=O)c1ccc2c(c1)C1C=CCC1C(c1cc3c(cc1Br)OCO3)N2 (stereo not drawn) [G1, reference compound]
LOEC, SKBR3 cell migration, wound-healing assay (SKBR3 cells [5]): 1 nM | LOEC, cAMP production [4]: 1 nM | LOEC, SKBR3 cell migration, Boyden chamber assay (SKBR3 cells [6]): 1 nM

Brc1cc2c(cc1[C@@H]1Nc3ccccc3[C@@H]3C=CC[C@@H]31)OCO2 [G15, reference compound]
calcium mobilization after G15 pretreatment versus vehicle pretreatment [3, 8]: significantly lower | cell migration after G15 pretreatment versus OH-PBDE alone, wound-healing (SKBR3 cells [5]; 1μM OH-PBDEs, 10μM G15): significantly less cell migration | cAMP production after G15 pretreatment versus vehicle pretreatment [4, 8]: significantly lower | cell migration after G15 pretreatment versus OH-PBDE alone, Boyden chamber (SKBR3 cells [6]; 1μM OH-PBDEs, 10μM G15): significantly less cell migration

O=c1c(-c2ccc(O)cc2)coc2cc(O)cc(O)c12 [genistein]
RBA to human GPER compared to E2 (human GPER): 1.3–13.4%

O=C1C2(Cl)C3(Cl)C4(Cl)C(Cl)(Cl)C5(Cl)C3(Cl)C1(Cl)C5(Cl)C24Cl (stereo not drawn) [kepone]
RBA to human GPER compared to E2 (human GPER): 1.3–13.4%

CC(C)(c1cc(Br)c(O)c(Br)c1)c1cc(Br)c(O)c(Br)c1 [tetrabromobisphenol A]
binding to zebrafish GPER at a single tested concentration (zebrafish GPER): effective binding

CC(C)(c1cc(Cl)c(O)c(Cl)c1)c1cc(Cl)c(O)c(Cl)c1 [tetrachlorobisphenol A]
binding to zebrafish GPER at a single tested concentration (zebrafish GPER): effective binding

nonylphenol
RBA to human GPER compared to E2 (human GPER): 1.3–13.4%

Source: paper PMC6071991, “Hydroxylated Polybrominated Biphenyl Ethers Exert Estrogenic Effects via Non-Genomic G Protein–Coupled Estrogen Receptor Mediated Pathways” (Environmental Health Perspectives, 2018)
